Experimental data: US12391646B2, “Using adiponectin receptor agonists to treat inflammation and bone diseases in diabetes” (Trustees of Tufts College, priority 2020, dated 2025)

How the values were obtained:
[1] = tested on: RAW 264.7 cells in high glucose medium; assay: Osteoclastogenesis and autophagy of RANKL-treated RAW 264.7 cells in high glucose medium; type: cell-based; settings: for RANKL-induced mRNA expression of Cathepsin K and TRAP: high glucose 25 mM, AdipoRon 20 μM; for LC3 mRNA, LC3II protein and LC3 puncta: high glucose medium with RANKL
Protocol: FIG. 20 RAW 264.7 cells were treated with RANKL (100 ng/ml) with or without AdipoRon ([…]) or AdipoAI (5 μM) in low (5 mmol/l) glucose, 20 mmol/l D-mannitol or high (25 mmol/l) glucose medium. qRT-PCR analysis of cathepsin K (A), TRAP (B) and microtubule associated protein 1 light chain 3 (LC3) (C), and mRNA expression were calculated (n≥3). (D) Western blot analysis of LC3A/B protein levels normalized to β-actin. (E) The mean of protein/β-actin ratios normalized to 1.0 (RANKL-AdipoRon-AdipoAI-H group) quantified by densitometry. (F) Autophagosome images obtained with laser confocal microscopy after the RAW 264.7 cells were transfected with a GFP-LC3 plasmid and treated with RANKL and AdipoRon or AdipoAI (scale bar=50 μm). Data are shown as mean±SD. *, P<0.05. **P<0.01. ***P<0.001.
FIG. 21 Autophagy inhibitor reverses AdipoAI-inhibited osteoclastogenesis in high glucose medium. RAW 264.7 cells were treated with RANKL (100 ng/ml) in 2 days and with or without AdipoAI (5 μM) for 24 hours followed by 3-methyladenine (3-MA, 2.5 mM) treatment for another 24 hours in high glucose medium. qRT-PCR analysis of cathepsin K (A), TRAP (B) and LC3 (C) mRNA expression were calculated (n≥3). (D) Western blot analysis of LC3A/B protein levels normalized to β-actin. (E) The mean of protein/β-actin ratios normalized to 1.0 (3-MA-, RANKL-, AdipoAI-group) quantified by densitometry. Data are shown as mean±SD. *, P<0.05. **P<0.01. ***P<0.001.
FIG. 22 AdipoAI-induced autophagy of osteoclasts in high glucose medium via AKT1/mTOR signaling pathway. RAW 264.7 cells were induced with RANKL for 2 days and then treated with or without (5 μM) additional 24 hours after serum starvation for 4 hours. Then, the cells were treated with RANKL, AdipoAI or SC79 (5 μM), an AKT activator, for another 24 hours in high glucose medium. qRT-PCR analysis of mRNA expression of cathepsin K (A), TRAP (B) and LC3 (C) were calculated (n≥3). (D) Representative images show the protein expression levels of AKT, p-AKT, AKT1, p-AKT1, mTOR, p-mTOR, and LC3A/B in osteoclasts. Quantitative analysis of bands is shown in (E-K) (n≥3). Data are shown as mean±SD. *, P<0.05. **P<0.01. ***P<0.001. R: RANKL. A, AI: AdipoAI. SC5: SC79 (5 μM).
RAW 264.7 cells (ATCC, Manassas, VA, USA) were cultured and passaged in DMEM supplemented with 10% (v/v) FBS (Invitrogen, Grand Island, NY, USA) and 1% Penicillin-Streptomycin (Gibco, Gaithersburg, MD, USA). For the induction of osteoclastogenesis, RAW 264.7 cells were cultured 24 in α-MEM supplemented with 10% FBS and 1% Penicillin-Streptomycin in the presence of 100 ng/ml RANKL (Peprotech, Rocky Hill, NJ, USA) for 2 days, and subsequently treated or not with AdipoRon or AdipoAI for another 2 days changing cell culture medium every 2 days. After a total of […] of culture, morphologic examination was performed, as was mRNA and protein expression. To simulate high glucose environment in vitro, α-MEM was supplemented with D-glucose to 25 mmol/l (high glucose) or 5 mmol/l (physiological glucose). 20 mmol/l D-mannitol served as an osmotic control.
Total RNA was isolated from cell cultures and gingival soft tissues using TriZol reagent (Life Technologies, Carlsbad, CA, USA) according to the manufacturer's instructions^24. Reverse transcription was performed using the PrimeScript RT Master Mix (Takara Bio, Otsu, Japan) and real-time-qPCR analyses were performed using SYBR-Green Real-Time PCR Master Mix (Takara Bio, Otsu, Japan) as described earlier^27.
Total cellular extracts were prepared using RIPA Lysis and Extraction Buffer containing three Protease Inhibitors (Santa Cruz, Dallas, TX, USA). Western blot analyses were performed as previously described 24. Antibodies for β-actin (1:2000) and GAPDH (1:5000), LC3A/B (1:1000), AKT1 (1:1000), p-AKT1 (1:1000), AKT (1:1000), p-AKT (1:1000), mTOR (1:1000), p-mTOR (1:1000) were purchased from Abcam and Cell Signaling Technology, respectively. SC79, an AKT activator was purchased from Sigma Aldrich. […]

[2] = AdipoAI 5 μM, RANKL, high glucose medium

SMILES | RANKL-induced mRNA expression of Cathepsin K and TRAP ([1]; AdipoAI 5 μM) | LC3 mRNA, LC3II protein and LC3 puncta [1] | expression of AKT [1, 2] | expression of LC3II [1, 2] | reduction of phosphorylation of AKT [1, 2] [%] | reduction of phosphorylation of AKT1 [1, 2] [%] | reduction of phosphorylation of mTOR [1, 2] [%] | number of RAW 264.7 cells (CCK-8) at 20 μM (RAW 264.7 cells) | number of RAW 264.7 cells (CCK-8) at 5 μM (RAW 264.7 cells; mouse, 48 h, 5 μM)
O=C(COc1ccc(C(=O)c2ccccc2)cc1)NC1CCN(Cc2ccccc2)CC1 [AdipoRon, reference compound] | decreased the RANKL-induced mRNA expression of osteoclastogenesis markers | increased the mRNA expression of LC3, protein expression of LC3II and LC3 puncta |  |  |  |  |  |  | 
COc1ccc(CN2CCC(NC(=O)COc3ccc(C(=O)c4ccc(Cl)cc4)cc3)CC2)cc1 [Compound 3] | decreased the RANKL-induced mRNA expression of osteoclastogenesis markers | increased the mRNA expression of LC3, protein expression of LC3II and LC3 puncta | inhibits the expression of AKT | promotes the expression of LC3II | 21 | 40 | 25 | reduced cell number | did not reduce the number of RAW 264.7 cells
